Patent publication US11083199B2, “Heterocycle derivatives as pesticides” (Bayer Aktiengesellschaft, priority 2017, dated 2021)

Columns and labels:
Format in all cases: in vivo
Myzus persicae [1] = test: Myzus persicae spray test; conditions: foliar, 120 h, application rate 100 g/ha, Chinese cabbage leaf discs, after 5 days, read-out: efficacy
Procedure: (§1) [table] To produce a suitable active ingredient formulation, 1 part by weight of active ingredient is dissolved with the specified parts by weight of solvent and made up to the desired concentration with water containing an emulsifier concentration of 1000 ppm. To produce further test concentrations, the formulation is diluted with emulsifier-containing water. Discs of Chinese cabbage leaves (Brassica pekinensis) infested by all stages of the green peach aphid (Myzus persicae) are sprayed with an active ingredient formulation of the desired concentration. After 5 days, the efficacy in % is determined. 100% means that all the aphids have been killed; 0% means that no aphids have been killed.

Tetranychus urticae = Tetranychus urticae spray test, OP-resistant; conditions: foliar, 144 h, application rate 100 g/ha, bean leaf discs, after 6 days, read-out: efficacy
Procedure: [table] To produce a suitable active ingredient formulation, 1 part by weight of active ingredient is dissolved with the specified parts by weight of solvent and made up to the desired concentration with water containing an emulsifier concentration of 1000 ppm. To produce further test concentrations, the formulation is diluted with emulsifier-containing water. Discs of bean leaves (Phaseolus vulgaris) infested with all stages of the greenhouse red spider mite (Tetranychus urticae) are sprayed with an active ingredient formulation of the desired concentration. After 6 days, the efficacy in % is determined. 100% means that all the spider mites have been killed; 0% means that no spider mites have been killed.

Myzus persicae [2] = test: Myzus persicae oral test; conditions: 120 h, application rate 4 ppm, after 5 days, read-out: efficacy
Procedure: [table] To produce a suitable active ingredient formulation, 1 part by weight of active ingredient is dissolved with the stated parts by weight of solvent and made up to the desired concentration with water. 50 μl of the active ingredient formulation are transferred into microtitre plates and made up to a final volume of 200 μl with 150 μl of IPL41 insect medium (33%+15% sugar). Subsequently, the plates are sealed with parafilm, which a mixed population of green peach aphids (Myzus persicae) within a second microtitre plate is able to puncture and imbibe the solution. After 5 days, the efficacy in % is determined. 100% means that all the aphids have been killed; 0% means that no aphids have been killed.

Lucilia cuprina = Lucilia cuprina test; conditions: 48 h, application rate 100 ppm, L1 larvae, kill after 2 days, read-out: efficacy
Procedure: Solvent: dimethyl sulfoxide To produce a suitable active ingredient formulation, 10 mg of active ingredient are mixed with 0.5 ml of dimethyl sulfoxide, and the concentrate is diluted with water to the desired concentration. About 20 L1 larvae of the Australian sheep blowfly (Lucilia cuprina) are transferred into a test vessel containing minced horsemeat and the active ingredient formulation of the desired concentration. After 2 days, the kill in % is determined. 100% means that all the larvae have been killed; 0% means that no larvae have been killed.

Spodoptera frugiperda = Spodoptera frugiperda spray test; conditions: foliar, 168 h, application rate 100 g/ha, maize leaf discs, caterpillars, after 7 days, read-out: efficacy
Procedure: [table] To produce a suitable active ingredient formulation, 1 part by weight of active ingredient is dissolved with the specified parts by weight of solvent and made up to the desired concentration with water containing an emulsifier concentration of 1000 ppm. To produce further test concentrations, the formulation is diluted with emulsifier-containing water. Leaf discs of maize (Zea mays) are sprayed with an active ingredient formulation of the desired concentration and, after drying, populated with caterpillars of the fall armyworm (Spodoptera frugiperda). After 7 days, the efficacy in % is determined. 100% means that all the caterpillars have been killed; 0% means that no caterpillar has been killed.

Phaedon cochleariae = Phaedon cochleariae spray test; conditions: 168 h, application rate 100 g/ha, larvae, after 7 days, read-out: efficacy
Procedure: as §1, with “pekinensis)” for “pekinensis) infested by all stages of the green peach aphid (Myzus persicae)”, “concentration and, after drying, populated with larvae of the mustard beetle (Phaedon cochleariae).” for “concentration.”, “7” for “5”, “beetle larvae” for “aphids”

Ctenocephalides felis = Ctenocephalides felis oral test; conditions: 48 h, application rate 100 ppm in citrated cattle blood, kill after 2 days, read-out: efficacy
Procedure: Solvent: dimethyl sulfoxide To produce a suitable active ingredient formulation, 10 mg of active ingredient are mixed with 0.5 ml of dimethyl sulfoxide. Dilution with citrated cattle blood gives the desired concentration. About 20 unfed adult cat fleas (Ctenocephalides felis) are placed into a chamber which is closed at the top and bottom with gauze. A metal cylinder whose bottom end is closed with parafilm is placed onto the chamber. The cylinder contains the blood/active ingredient formulation, which can be imbibed by the fleas through the parafilm membrane. After 2 days, the kill in % is determined. 100% means that all of the fleas have been killed; 0% means that none of the fleas have been killed.

Compound `CCS(=O)(=O)c1c(-c2nc3cc(C(F)(F)F)ncc3n2C)nc(-c2c(C)nn(C)c2C)n1C` [Example I-050] has a pest or weed control at 100 g/ha (Myzus persicae [1]) of 90%, a pest or weed control at 100 g/ha (Tetranychus urticae) of 90% and a pest or weed control at 4 ppm (Myzus persicae [2]) of 90%.

`CCS(=O)(=O)c1c(-c2nc3cc(C(F)(F)F)ncc3n2C)nc(C(C)C)n1C` [Example I-086] was tested, and the pest or weed control at 100 g/ha (Myzus persicae [1]) was 90%, the pest or weed control at 100 g/ha (Tetranychus urticae) was 90% and the pest or weed control at 4 ppm (Myzus persicae [2]) was 100%.

In the case of `CCS(=O)(=O)c1c(-c2nc3cc(C(F)(F)F)ncc3n2C)nc(-c2ccnnc2)n1C` [Example I-030], the pest or weed control at 100 ppm (Lucilia cuprina) is reported as 100%, the pest or weed control at 100 g/ha (Myzus persicae [1]) is reported as 100% and the pest or weed control at 4 ppm (Myzus persicae [2]) is reported as 100%.

`CCS(=O)(=O)c1c(-c2nc3cc(C(F)(F)F)ncc3n2C)nc(-c2ccn(C)n2)n1C` [Example I-060] showed a pest or weed control at 100 g/ha (Spodoptera frugiperda) of 83%, a pest or weed control at 100 g/ha (Myzus persicae [1]) of 100% and a pest or weed control at 4 ppm (Myzus persicae [2]) of 100%. For the same compound, the pest or weed control at 100 g/ha (Phaedon cochleariae) was 100%.

`CCS(=O)(=O)c1c(-c2nc3cc(C(F)(F)F)ncc3n2C)nc(C(=O)N(C)C)n1C` [Example I-040] showed a pest or weed control at 100 ppm (Lucilia cuprina) of 100%, a pest or weed control at 100 ppm (Ctenocephalides felis) of 90% and a pest or weed control at 100 g/ha (Myzus persicae [1]) of 100%. It also gave a pest or weed control at 4 ppm (Myzus persicae [2]) of 100%.

`CCS(=O)(=O)c1c(-c2nc3cc(C(F)(F)F)ncc3n2C)nc(-c2ccncc2)n1C` [Example I-021] was tested, and the pest or weed control at 100 ppm (Lucilia cuprina) was 80%, the pest or weed control at 100 g/ha (Myzus persicae [1]) was 100% and the pest or weed control at 4 ppm (Myzus persicae [2]) was 100%.

For `CCS(=O)(=O)c1c(-c2nc3cc(C(F)(F)F)ncc3n2C)nc(-n2cc(Cl)cn2)n1C` [Example I-027, 2-[2-(4-chloro-1H-pyrazol-1-yl)-5-(ethylsulfonyl)-1-methyl-1H-imidazol-4-yl]-3-methyl-6-(trifluoromethyl)-3H-imidazo[4,5-c]pyridine], the pest or weed control at 100 g/ha (Spodoptera frugiperda) was 100%, the pest or weed control at 100 g/ha (Myzus persicae [1]) was 90% and the pest or weed control at 4 ppm (Myzus persicae [2]) was 100%. The pest or weed control at 100 g/ha (Phaedon cochleariae) was 100%.

`CCS(=O)(=O)c1c(-c2nc3cc(C(F)(F)F)ncc3n2C)ncn1C` [Example I-029, 2-[5-(Ethylsulfonyl)-1-methyl-1H-imidazol-4-yl]-3-methyl-6-(trifluoromethyl)-3H-imidazo[4,5-c]pyridine] was tested, and the pest or weed control at 100 ppm (Lucilia cuprina) was 95%, the pest or weed control at 100 ppm (Ctenocephalides felis) was 95% and the pest or weed control at 100 g/ha (Myzus persicae [1]) was 70%. For the same compound, the pest or weed control at 4 ppm (Myzus persicae [2]) was 100% and the pest or weed control at 100 g/ha (Phaedon cochleariae) was 100%.

With `C=C(C)c1nc(-c2nc3cc(C(F)(F)F)ncc3n2C)c(S(=O)(=O)CC)n1C` [Example I-008] the pest or weed control at 100 ppm (Lucilia cuprina) was 100%, the pest or weed control at 100 g/ha (Myzus persicae [1]) was 90% and the pest or weed control at 4 ppm (Myzus persicae [2]) was 100%.

Compound `CCS(=O)(=O)c1c(-c2nc3cc(C(F)(F)F)ncc3n2C)nc(C(N)=O)n1C` [Example I-038, 5-(Ethylsulfonyl)-1-methyl-4-[3-methyl-6-(trifluoromethyl)-3H-imidazo[4,5-c]pyridin-2-yl]-1H-imidazole-2-carboxamide] has a pest or weed control at 100 ppm (Ctenocephalides felis) of 100%, a pest or weed control at 100 g/ha (Myzus persicae [1]) of 90% and a pest or weed control at 4 ppm (Myzus persicae [2]) of 100%. It also gave a pest or weed control at 100 g/ha (Phaedon cochleariae) of 100%.

In the case of `CCS(=O)(=O)c1c(-c2nc3cc(C(F)(F)F)ncc3n2C)nc(-c2ccccc2)n1C(C)C` [Example I-012], the pest or weed control at 100 ppm (Lucilia cuprina) is reported as 100%, the pest or weed control at 100 g/ha (Myzus persicae [1]) is reported as 90% and the pest or weed control at 4 ppm (Myzus persicae [2]) is reported as 100%.

Work on `CCS(=O)(=O)c1c(-c2nc3cc(C(F)(F)F)ncc3n2C)nc(C(=O)NC)n1C` [Example I-039] yielded a pest or weed control at 100 ppm (Ctenocephalides felis) of 100%, a pest or weed control at 100 g/ha (Myzus persicae [1]) of 100% and a pest or weed control at 4 ppm (Myzus persicae [2]) of 100%.

Work on `CCS(=O)(=O)c1c(-c2nc3cc(C(F)(F)F)ncc3n2C)nc(C2=CCC(C)CC2)n1C` (stereo not shown) [Example I-074] yielded a pest or weed control at 100 g/ha (Myzus persicae [1]) of 90% and a pest or weed control at 100 g/ha (Tetranychus urticae) of 90%.

`CCS(=O)(=O)c1c(-c2nc3cc(C(F)(F)F)ncc3n2C)nc(-c2cccc(C(C)(C)C#N)c2)n1C` [Example I-075] showed a pest or weed control at 100 g/ha (Myzus persicae [1]) of 90%, a pest or weed control at 100 g/ha (Tetranychus urticae) of 90% and a pest or weed control at 4 ppm (Myzus persicae [2]) of 100%.

With `CCS(=O)(=O)c1c(-c2nc3cc(C(F)(F)F)ncc3n2C)nc(Cl)n1C(C)C` [Example I-025] the pest or weed control at 100 ppm (Ctenocephalides felis) was 80%, the pest or weed control at 100 g/ha (Spodoptera frugiperda) was 100% and the pest or weed control at 4 ppm (Myzus persicae [2]) was 100%.

`CCS(=O)(=O)c1c(-c2nc3cc(C(F)(F)F)ncc3n2C)nc(-c2ccc(Cl)s2)n1C` [Example I-057] showed a pest or weed control at 100 g/ha (Spodoptera frugiperda) of 67%, a pest or weed control at 100 g/ha (Myzus persicae [1]) of 90% and a pest or weed control at 4 ppm (Myzus persicae [2]) of 100%. For the same compound, the pest or weed control at 100 g/ha (Phaedon cochleariae) was 100%.

For `CCS(=O)(=O)c1c(-c2nc3cc(C(F)(F)F)ncc3n2C)nc(-c2ccc(C#N)n2C)n1C` [Example I-054], the pest or weed control at 100 g/ha (Tetranychus urticae) was 100% and the pest or weed control at 4 ppm (Myzus persicae [2]) was 90%.

With `CCS(=O)(=O)c1c(-c2nc3cc(C(F)(F)F)ncc3n2C)nc(-c2ccc(C3(C#N)CC3)cc2)n1C` [Example I-069] the pest or weed control at 100 g/ha (Spodoptera frugiperda) was 100%, the pest or weed control at 100 g/ha (Myzus persicae [1]) was 90% and the pest or weed control at 4 ppm (Myzus persicae [2]) was 100%. For the same compound, the pest or weed control at 100 g/ha (Phaedon cochleariae) was 100%.

For `CCS(=O)(=O)c1c(-n2cc3ncc(C(F)(F)F)cc3n2)nc(-c2ccccc2)n1C` [Example I-096], the pest or weed control at 100 g/ha (Spodoptera frugiperda) was 83%, the pest or weed control at 100 g/ha (Myzus persicae [1]) was 90% and the pest or weed control at 4 ppm (Myzus persicae [2]) was 90%. For the same compound, the pest or weed control at 100 g/ha (Phaedon cochleariae) was 100%.

`CCn1c(Br)nc(-c2nc3cc(C(F)(F)F)ncc3n2C)c1S(=O)(=O)CC` [Example I-001] was tested, and the pest or weed control at 100 ppm (Lucilia cuprina) was 100% and the pest or weed control at 4 ppm (Myzus persicae [2]) was 100%.

`CCS(=O)(=O)c1c(-n2cc3ncc(C(F)(F)F)cc3n2)nc(-c2ccc(C(F)(F)F)cc2)n1C` [Example I-098, 2-{5-(Ethylsulfonyl)-1-methyl-2-[4-(trifluoromethyl)phenyl]-1H-imidazol-4-yl}-6-(trifluoromethyl)-2H-pyrazolo[4,3-b]pyridine] gave a pest or weed control at 100 g/ha (Spodoptera frugiperda) of 100%, a pest or weed control at 4 ppm (Myzus persicae [2]) of 100% and a pest or weed control at 100 g/ha (Phaedon cochleariae) of 100%.

Compound `CCS(=O)(=O)c1c(-c2nc3cc(C(F)(F)F)nnc3n2C)nc(-c2ccc(Cl)cc2)n1C` [Example I-063] has a pest or weed control at 100 g/ha (Spodoptera frugiperda) of 100%, a pest or weed control at 100 g/ha (Myzus persicae [1]) of 100% and a pest or weed control at 4 ppm (Myzus persicae [2]) of 100%. For the same compound, the pest or weed control at 100 g/ha (Phaedon cochleariae) was 100%.

`CCS(=O)(=O)c1c(-c2nc3cc(C(F)(F)F)ncc3n2C)nc(C(N)=S)n1C` [Example I-046, 5-(Ethylsulfonyl)-1-methyl-4-[3-methyl-6-(trifluoromethyl)-3H-imidazo[4,5-c]pyridin-2-yl]-1H-imidazole-2-carbothioamide] was tested, and the pest or weed control at 100 ppm (Lucilia cuprina) was 95%, the pest or weed control at 4 ppm (Myzus persicae [2]) was 100% and the pest or weed control at 100 g/ha (Phaedon cochleariae) was 100%.

`CCS(=O)(=O)c1c(-c2nc3cc(C(F)(F)F)ncc3n2C)nc(-c2ccsc2)n1C` [Example I-043] showed a pest or weed control at 100 ppm (Lucilia cuprina) of 100%, a pest or weed control at 100 g/ha (Myzus persicae [1]) of 90% and a pest or weed control at 4 ppm (Myzus persicae [2]) of 100%.

Compound `CCS(=O)(=O)c1c(-c2nc3cc(C(F)(F)F)ncc3n2C)nc(-c2cc(Cl)c(C(F)(F)F)cc2C)n1C` [Example I-081] has a pest or weed control at 100 g/ha (Spodoptera frugiperda) of 100%, a pest or weed control at 4 ppm (Myzus persicae [2]) of 100% and a pest or weed control at 100 g/ha (Phaedon cochleariae) of 100%.
